Reference: patent publication US11306098B2, “Substituted pyrrolo[1,2-a]pyrazines and pyrrolo[1,2-a][1,4]diazepines as TREX1 inhibitors” (VENENUM BIODESIGN, LLC, priority 2019, dated 2022)
Counter-ions that a name gives are not always drawn. Like-named read-outs stand apart in the source and are kept apart here.

What was measured:
[1] = molecular target: human TREX1 (Homo sapiens (Human), UniProt Q9NSU2); assay: TREX1 Exonuclease Assay (human enzyme); type: biochemical; conditions: human TREX1 0.5 nM, FAM/BHQ1-labeled DNA oligonucleotide
Procedure: (§1) The TREX1 Exonuclease assay is an exemplary in vitro assay for measuring the activity of the TREX1 inhibitors of the present invention. In this assay, TREX1 exonuclease activity was evaluated by measuring the increase in fluorescence resulting from TREX1-catalyzed removal of a quencher from the 3′ end of a FAM-labeled DNA oligonucleotide (5′FAM-CCA CGA GAG CGT-BHQ1-3′). The assay was conducted using Wild Type (WT) human or murine TREX1 enzyme constructs corresponding to amino acids 55-297 of UniProt ID Q9NSU2-1 (SEQ ID NO: 1), or amino acids 1-242 of UniProt ID Q91XB0-1 (SEQ ID NO: 2), respectively. See, e.g., Example A.
(§2) For human TREX1, the nucleotide sequence of the gene construct was codon optimized for expression in the bacterial host. The sequence was incorporated into the pMAL-c5e vector (NEB) downstream of a solubility-promoting MBP (maltose binding protein) fusion partner. The fusion protein product was expressed in E. coli strain BL21 (DE3) (Millipore) and purified in a series of chromatographic steps. Initial steps were conducted using a dextrin sepharose affinity column followed by a Q-sepharose ion exchange column (both GE Healthcare). After the second column the MBP partner was removed by incubation with enterokinase (NEB). Further purification was carried out with the second application of a Q-sepharose column followed by a Superdex 75 (GE Healthcare) size exclusion column. Finally, a heparin sepharose column (GE Healthcare) was applied to remove contaminating nucleotides. Similar methods were used in the preparation of the murine TREX1 enzyme and are described in Example B set forth below.
(§3) To evaluate the effect of compounds on TREX1 activity, test compounds were serially diluted (11-point, 3-fold) from 10 mM stock solutions and delivered to 384-well low-volume assay plates in 80 nL DMSO using an acoustic dispenser. Next, 4 μL of human TREX1 (0.5 nM), or murine TREX1 (1 nM), diluted in assay buffer (20 mM Tris pH 7.5, 5 mM MgCl2, 100 μg/mL BSA, 0.002% Triton X-100, 2 mM DTT), was added to the assay plate. After incubating for 30 minutes, 4 μL of labeled DNA oligonucleotide (500 nM) in assay buffer was added to initiate TREX1 exonuclease activity. The reaction was allowed to proceed for 45 minutes at room temperature prior to the addition of 4 μL of 150 mM EDTA to halt TREX1 activity. Assay plates were equilibrated for an additional 30 minutes and read on an EnVision Plate Reader (Perkin Elmer) to measure fluorescence emission at 535 nm following excitation at 485 nm. Fluorescence was plotted as a function of log molar compound concentration and fit to four-parameter dose-response equation to determine compound IC50.

[2] = molecular target: murine TREX1 (Mus musculus (Mouse), UniProt Q91XB0); assay: TREX1 Exonuclease Assay (murine enzyme); type: biochemical; conditions: murine TREX1 1 nM, FAM/BHQ1-labeled DNA oligonucleotide
Procedure: as §1, §2, §3

[3] = molecular target: cleaved human TREX1 (Homo sapiens (Human), UniProt Q9NSU2); assay: TREX1 Thermal Shift Binding Assay (human); conditions: 100 μM compound, 5 μM TREX1
Procedure: (§4) Example B is a protein thermal shift assay used to assess the binding of TREX1 inhibitors to TREX1 protein. In this assay, TREX1 protein unfolding with increasing temperature was measured in the presence and absence of TREX1 inhibitors by following the increase in fluorescence of a thiol-reactive dye (e.g BODIPY FL-cystine) as it reacts with exposed TREX1 cysteine residues. The assay was conducted using human (SEQ ID NO: 1), or murine (SEQ ID NO: 2) TREX1 protein constructs.
(§5) The thermal shift assays used recombinant protein corresponding to human (SEQ ID NO: 1) and murine (SEQ ID NO: 2) TREX1. The protein encoding plasmid contained a N-terminal MBP (maltose binding protein) tag followed by the TREX1 coding sequence within the pMAL-c5E vector. The plasmid was transfected into a BL21 (DE3) E. coli expression strain. Protein was purified from the bacterial lysate using an Amylose resin column. The MBP tag was cleaved from the purified protein using recombinant enterokinase (EMD Millipore #69066-3). The cleaved TREX1 protein was further purified on a Q-Sepharose column followed by a heparin column.
(§6) Binding of compounds to both human and murine TREX1 were measured by protein thermal shift assays. (Huynh K, Partch C L. Current Protocols in Protein Science: Analysis of protein stability and ligand interactions by thermal shift assay. Current protocols in protein science/editorial board, John E Coligan. [et al]. 2015; 79:28.9.1-28.9.14. doi:10.1002/0471140864.ps2809s79.). Thermal shift assays were conducted in sealed 96-well PCR plates containing 5 μM TREX1 protein, 100 μM compound, and 2 μM BODIPY FL-cystine (Sigma) in either 20 μL assay buffer (20 mM Tris, 7.5, 5 mM MgCl2, 0.002% Triton X-100) or 20 μL phosphate buffered saline (PBS). Using a RT-qPCR machine (Mx3005P, Stratagene) changes in fluorescence (excitation at 492 nm and emission at 516 nm) were monitored as temperature was increased from 25° C. to 96° C. at a rate of 1° C. every 2 minutes. Tm values were calculated from the first derivative plot of fluorescence intensity versus temperature. The results shown in Table 6 indicate the examples bind to human TREX1 and murine TREX1. ND indicates assay was not done.

[4] = molecular target: cleaved mouse TREX1 (Mus musculus (Mouse), UniProt Q91XB0); assay: TREX1 Thermal Shift Binding Assay (mouse); conditions: 100 μM compound, 5 μM TREX1
Procedure: as §4, §5, §6

[5] = tested on: THP1 Dual cells (ISRE Lucia reporter, cGAS-STING pathway); assay: THP1 monocyte assay, ISRE Lucia luciferase reporter; type: cell-based, human; conditions: 48 hours, luciferase signal versus control wells without compound
From the text: Example C is a cell-based assay for TREX1 inhibitors using THP1 Dual™ cells (Invivogen), a human monocyte cell line that has stable integration of an Interferon Stimulated Response Element (ISRE) Lucia reporter gene. The Lucia gene encodes a secreted luciferase reporter protein, under the control of an ISG54 minimal promoter in conjunction with five IFN-stimulated response elements. Activation of the cGAS-STING pathway in THP1 Dual™ cells leads to enhanced luciferase secretion and increased luminescence.
A cell-based assay was established using THP1 Dual™ cells (Invivogen), a human monocyte cell line that has stable integration of an Interferon Stimulated Response Element (ISRE) Lucia reporter gene. The Lucia gene encodes a secreted luciferase reporter protein, under the control of an ISG54 minimal promoter in conjunction with five IFN-stimulated response elements. Activation of the cGAS-STING pathway in these cells leads to enhanced luciferase secretion. The assay was conducted in standard 384-well white tissue culture plates. Cells (25,000 in 25 μL RPMI 1640 containing 10% Heat-Inactivated FBS, 1× Glutagro, 10 mM HEPES, 1 mM sodium pyruvate, 1× Pen/Strep, 100 μg/mL Normocin, 100 μg/mL Zeocin, 10 μg/mL Blasticidin) were added to the plate followed by 25 μL of compound in the same media+0.2% DMSO. The assay was incubated for 48 hours at 37° C. in 5% CO2. An aliquot of 5 μl was removed to combine with 12.5 μL of the luciferase detection reagent, QUANTI-Luc™ Gold (Invivogen) in a white 384-well plate. The luminescent signal was then read using an EnVision plate reader (Perkin Elmer). The fold activation was calculated by dividing the signal in wells containing test compound by the signal in the control wells without compound (see Table 7).

[6] = tested on: interferon stimulated genes (ISGs) in THP1 Dual cells; assay: RT-qPCR assay of interferon stimulated gene expression; type: cell-based, human; conditions: substance alone, 24 hours, normalized to GAPDH, unstimulated control = 1
From the text: Example D is a cell based assay that measures the increase in the expression of interferon stimulated genes (ISG) by RT-qPCR that are induced by TREX1 inhibitors when THP1 Dual™ cells are transfected with double-stranded DNA. The double stranded DNA used to transfect cells was VACV-70 (Invivogen), a 70 base pair oligonucleotide containing viral DNA motifs (Unterholzner L. et al., 2010. IFI16 is an innate immune sensor for intracellular DNA. Nat Immunol. 11(11):997-1004). Activation of cGAS-STING pathway in THP1 Dual™ cells increases the expression of ISGs.
The RT-qPCR assay was used to assess the ability of TREX1 inhibitors to enhance the expression of interferon stimulated genes (ISGs) in cells transfected with double-stranded DNA. The double stranded DNA used to transfect cells was VACV-70 (Invivogen), a 70 base pair oligonucleotide containing viral DNA motifs (Unterholzner L. et al., 2010. IFI16 is an innate immune sensor for intracellular DNA. Nat Immunol. 11(11):997-1004). Human THP1 Dual™ cells (Invivogen), were treated with test compound in the presence or absence of 1,200 ng/mL VACV-70, or with VACV-70 alone, for 24 hours. Cells were harvested by centrifugation and washed with phosphate buffer saline. Total RNA was isolated using Qiagen RNeasy mini kit. Genomic DNA was degraded using Thermo Scientific DNase 1 kit. Total RNA was quantified using a Nanodrop spectrophotometer. Using equal amounts of RNA, cDNA was synthesized using Invitrogen Superstrand III First Strand synthesis kit. Target and reference gene expression levels were determined by RT-qPCR using TaqMan gene expression assays and a Stratagene Mx3005P QPCR system (all reagents were from TaqMan, Applied Biosystems). Data were analyzed by the Comparative CT method. GAPDH was used for normalization. Target genes that were analyzed included interferon stimulated genes (INF-β, CXCL10, IFIT1, IFIT2, IFIT3, IFI44, and IFI44L).

[7] = PBS, read-out: Thermal shift cleaved human TREX1, (ΔTm ° C.) PBS
[8] = assay buffer, read-out: Thermal shift cleaved human TREX1, (ΔTm ° C.) Assay buffer
[9] = PBS, read-out: Thermal shift cleaved mouse TREX1, (ΔTm ° C.) PBS
[10] = assay buffer, read-out: Thermal shift cleaved mouse TREX1, (ΔTm ° C.) Assay buffer

Chain of murine TREX1 (Q91XB0 1-242): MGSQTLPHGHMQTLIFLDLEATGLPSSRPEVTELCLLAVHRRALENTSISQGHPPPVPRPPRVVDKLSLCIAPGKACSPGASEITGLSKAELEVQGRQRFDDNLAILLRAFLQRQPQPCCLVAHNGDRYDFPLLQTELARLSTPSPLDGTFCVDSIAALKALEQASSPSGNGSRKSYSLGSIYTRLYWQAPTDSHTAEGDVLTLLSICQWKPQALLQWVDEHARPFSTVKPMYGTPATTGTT
Chain of cleaved mouse TREX1 (Q91XB0 1-242): as above
Chain of human TREX1 (Q9NSU2 1-242): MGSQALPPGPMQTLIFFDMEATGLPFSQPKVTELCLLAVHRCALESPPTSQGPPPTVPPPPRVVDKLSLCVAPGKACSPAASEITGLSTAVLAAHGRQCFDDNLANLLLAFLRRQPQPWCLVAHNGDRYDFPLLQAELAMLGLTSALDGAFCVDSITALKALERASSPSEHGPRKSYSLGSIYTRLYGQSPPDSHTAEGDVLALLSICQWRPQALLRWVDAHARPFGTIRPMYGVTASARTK
Chain of cleaved human TREX1 (Q9NSU2 1-242): as above

SMILES | IC50 [1] [nM] | IC50 [2] [nM] | ΔTm at 100 µM [3, 7] [°C] | ΔTm at 100 µM [3, 8] [°C] | ΔTm at 100 µM [4, 9] [°C] | ΔTm at 100 µM [4, 10] [°C] | Fold activation @ 10 μM [5] | CXCL10 expression [6] | IFI44L expression [6] | IFI44 expression [6] | IFIT1 expression [6] | IFIT2 expression [6] | IFIT3 expression [6] | IFN-β expression [6]
N[C@@H]1C[C@H]2C(=O)N([C@H](CCC(=O)O)C(=O)NCc3ccc(C(F)(F)F)cc3)CCC(CCc3ccccc3)N2C1 (single isomer, unassigned) [Example 2B] | < 1000 | < 1000 | > 8 | > 8 | 4 to 8 | 4 to 8 | – | – | – | – | – | – | – | –
CC(C)C[C@H](C(=O)NCc1ccc(Cl)c(Cl)c1)N1CCC(CCc2ccccc2)N2C[C@H](N)C[C@H]2C1=O (stereo partly drawn) [Example 1, (2R)-2-((8R,9aS)-8-amino-1-oxo-5-phenethylhexahydro-1H-pyrrolo[1,2-a][1,4]diazepin-2(3H)-yl)-N-(3,4-dichlorobenzyl)-4-methylpentanamide.HCl] | – | – | > 8 | > 8 | 4 to 8 | 4 to 8 | – | – | – | – | – | – | – | –
N[C@@H]1C[C@H]2C(=O)N([C@H](CO)C(=O)NCc3ccc(Cl)c(Cl)c3)CCC(CCc3ccccc3)N2C1 (stereo partly drawn) [Example 3, (2R)-2-((8R,9aS)-8-amino-1-oxo-5-phenethylhexahydro-1H-pyrrolo[1,2-a][1,4]diazepin-2(3H)-yl)-N-(3,4-dichlorobenzyl)-3-hydroxypropanamide.HCl] | – | – | > 8 | > 8 | 4 to 8 | 4 to 8 | – | – | – | – | – | – | – | –
N[C@@H]1C[C@H]2C(=O)N([C@H](Cc3ccc(O)cc3)C(=O)NCc3ccc(Cl)c(Cl)c3)CCC(CCc3ccccc3)N2C1 (some centres unmarked) [Example 4] | < 1000 | < 1000 | > 8 | > 8 | 4 to 8 | 4 to 8 | – | – | – | – | – | – | – | –
N[C@@H]1C[C@H]2C(=O)N([C@H](CC(=O)O)C(=O)NCc3ccc(Cl)c(Cl)c3)CCC(CCc3ccccc3)N2C1 (some centres unmarked) [Example 15] | < 1000 | < 1000 | – | – | – | – | 2 | 1 | 20 | 20 | 10 | 32 | 20 | 5
NC(=O)CC[C@H](C(=O)NCc1ccc(Cl)c(Cl)c1)N1CCC(CCc2ccccc2)N2C[C@H](N)C[C@H]2C1=O (some centres unmarked) [Example 16] | < 1000 | < 1000 | – | – | – | – | 4 | 2 | 15 | 14 | 11 | 41 | 25 | 6
N[C@@H]1C[C@H]2C(=O)N([C@H](CCc3nnn[nH]3)C(=O)NCc3ccc(Cl)c(Cl)c3)CCC(CCc3ccccc3)N2C1 (some centres unmarked) [Example 36] | < 1000 | < 1000 | – | – | – | – | 7 | 2 | 16 | 20 | 8 | 26 | 16 | 3
